The experiment has as its target T1, hsolAC (human soluble adenylate cyclase) (Homo sapiens, UniProt Q96PN6).
T1 sequence (Q96PN6 1-469): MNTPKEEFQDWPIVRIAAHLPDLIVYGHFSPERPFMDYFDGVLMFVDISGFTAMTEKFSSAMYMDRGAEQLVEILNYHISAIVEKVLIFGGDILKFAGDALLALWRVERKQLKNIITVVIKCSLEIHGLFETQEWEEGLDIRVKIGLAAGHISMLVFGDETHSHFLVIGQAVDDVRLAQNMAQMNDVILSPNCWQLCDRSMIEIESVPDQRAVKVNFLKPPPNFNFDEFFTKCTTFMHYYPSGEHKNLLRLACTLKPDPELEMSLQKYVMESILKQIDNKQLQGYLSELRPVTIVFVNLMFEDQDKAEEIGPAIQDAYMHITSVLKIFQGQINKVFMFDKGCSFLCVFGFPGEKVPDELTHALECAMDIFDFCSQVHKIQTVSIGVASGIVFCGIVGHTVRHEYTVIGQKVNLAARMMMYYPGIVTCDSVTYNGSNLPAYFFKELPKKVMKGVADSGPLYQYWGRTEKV
Briefly: Bridge-It cAMP fluorescence assay. The format is biochemical.

By IC50 is commonly meant the midpoint of a concentration-inhibition curve.

Take `Cc1n[nH]cc1-c1ccc(F)cc1` [compound 1, 4-(4-Fluorophenyl)-3-methyl-1H-pyrazole]: the IC50 is over 1000 µM.

Source of the values: article PMC4506562 (Chemmedchem, 2014).
